Reference: patent US20240010984A1, “SERUM-FREE MEDIUM FOR DIFFERENTIATION OF A PROGENITOR CELL” (Mosa Meat B.V., priority 2020, published 2024)

What was measured:
[1] = test system: bovine muscle progenitor cells; assay: Serum-free myogenic differentiation with or without Notch pathway inhibition, brightfield microscopy (Example 5, FIG. 3); assay type: cell-based
Protocol: Myogenic progenitor cells as disclosed in Example 2 were plated in Matrigel-coated (1:200 in PBS) plates at a seeding density of 40 k cells/cm^2 and cultured for 24 h in a serum-free proliferation medium as disclosed in Example 2. Myogenic differentiation was induced by adding an exemplary serum-free differentiation medium (Table 3) in the presence and absence of DAPT (gamma-Secretase inhibitor #ab120633, abcam) at 0 μM (absence of DAPT; control medium), 1 μM, 5 μM and 10 μM. Cells were imaged with brightfield microscopy and the differentiation phenotypes were compared.

[2] = test system: Bovine muscle progenitor cells; assay: Serum-free myogenic differentiation of bovine muscle progenitor cells into myocytes (Example 3, FIG. 1 and 2); assay type: cell-based, Bos taurus; conditions: cells previously proliferated in serum-free proliferation medium, one inducer per medium (lactate 10 mM, LPA 5 uM, oxytocin 50 nM or glucagon 1 uM), different basal formulations
Protocol: The DMEM/F12 1:1 or 10:1 or 1:0 or alpha-MEM or M199 medium was supplemented with albumin (recombinant human albumin from Richcore) at 0.5 mg/ml, insulin (recombinant human insulin, 10-365 from Peprotech) at 19.4 ug/ml, transferrin (recombinant human transferrin, 10-366 from Peprotech) at 10.7 ug/ml, sodium selenite (S5261 from SigmaAldrich) at 0.014 ug/ml, Ethanolamine from Sigma Aldrich cat nr E9508 at 4 ug/ml, ascorbic acid (L-ascorbic acid 2-phosphate sesquimagnesium salt hydrate, A8960 from SigmaAldrich) at 115.22 ug/ml, EGF (recombinant human EGF, AF-100-15 from Peprotech) at 10 ng/ml and one of the following inducers: lactate (Sodium L-lactate, 71718 from SigmaAldrich) at 10 mM, LPA (Oleoyl-L-α-lysophosphatidic acid sodium salt, L7260 from SigmaAldrich) at 5 uM, oxytocin (06379 from SigmaAldrich) at 50 nM, or glucagon (G2044 from SigmaAldrich) at 1 uM.
Bovine muscle progenitor cells were isolated from a bovine muscle tissue (Bos taurus) and sorted based on their positive expression of CD29 as previously described (Ding et al., Sci. Rep., 17(8): 10808 (2018)). Muscle progenitor cells were propagated in a serum-free proliferation medium for at least 8 population doublings prior to differentiation. […]

Compound: C[C@H](NC(=O)Cc1cc(F)cc(F)c1)C(=O)N[C@H](C(=O)OC(C)(C)C)c1ccccc1 [DAPT]
- myogenic differentiation of bovine muscle progenitor cells into myocytes compared to control medium without DAPT ([1]; DAPT 1 uM, 5 uM and 10 uM, serum-free differentiation medium of Table 3 (lactate 10 mM), FIG. 3): improved myogenic differentiation
- number of cells that fuse into myotubes ([1]; DAPT added during myogenic differentiation): increases the number of cells that fuse into myotubes

Compound: C[C@H](O)C(=O)[O-].[Na+] [lactate, Sodium L-lactate]
- induction of serum-free myogenic differentiation [2]: induction of serum-free myogenic differentiation could be achieved
